Laboratory results published in PMC8765437, “GSK3640254 Is a Novel HIV-1 Maturation Inhibitor with an Optimized Virology Profile” (Antimicrobial Agents and Chemotherapy, 2022).
Where two headings read alike, the source gives them in different places.

System: NLRepRlucP373S viruses containing Gag SDMs or gag/pr genes from clinical isolates
Experiment: Multiple-cycle replication assay, NLRepRluc reporter viruses in MT-2 cells, luciferase endpoint
Type: cell-based, HIV-1
Description: Multiple-cycle assays using recombinant viruses or clinical isolates were used to assess MI antiviral activity as described previously ([10]). pNLRepRlucP373S (the P373S change is in the Gag gene and converts an outlier polymorphism in the NL4-3 gene to the prevalent amino acid in the population) plasmids containing SDMs in Gag or gag/pr regions from clinical isolates were transfected into HEK 293T cells, and the supernatant containing recombinant virus was harvested after 4 to 5 days. Virus was used to infect MT-2 cells in the presence of a 3-fold serially diluted compound at a final dimethyl sulfoxide (DMSO) concentration of 1%. The inocula of the reporter viruses were determined based on the luciferase activity detected on day 4 postinfection. The MOI (ratio of infectious virions to target cells) of reporter-free laboratory strains and clinical isolates was 0.005, as derived from a tissue culture infectious dose study. Clinical isolates or reporter-free viruses were examined in the reporter CEM-NKR-CCR5-Luc cells or PBMCs at MOIs ranging from 0.005 to 0.01. Each infection started with a drug-free preincubation of the cell-virus mixtures, performed at 37°C and 5% CO2 for either 1 h at 2 times the final cell density (reporter viruses) or 1 h (reporter-free laboratory strains) or 3 h (clinical isolates) using cell pellets in 0.5 mL of medium. After preincubation, cell-virus mixtures were added to compound-containing 96-well plates for a final cell density of either 10,000 (MT-2 cells for reporter viruses), 20,000 (MT-2 and PM1 cells for reporter-free laboratory strains), 200,000 (PBMCs for clinical isolates), or 500,000 (CEM-NKR-CCR5-Luc for reporter-free laboratory strains) cells per well. The CEM-NKR-CCR5-Luc cell assay was performed in the presence of Polybrene (10 μg/mL). Virus growth was determined on days 4 to 5 postinfection for reporter variants or days 5 to 11 for the other viruses. The reporter viruses were detected by a luciferase assay according to manufacturer protocols (Brite-Glo luciferase kit [Promega] for CEM-NKR-CCR5-Luc cells and Dual-Luciferase Reporter 1000 assay system [Promega] for the other cells), and luminescence was detected on a Wallac Trilux. The growth of clinical isolates in PBMCs was quantitated by reverse transcriptase activity in a 96-well scintillation proximity assay (SPA). Twenty microliters of culture supernatants was mixed with 40 μL of reaction cocktail (62.5 mM Tris-HCl [pH 7.8], 100 mM KCl, 0.0625% NP-40, 2.5 mM dithiothreitol [DTT], 6.25 mM MgCl2, 1 mM EGTA, 6.25 μg/mL of poly rA, 2.5 μg/mL of streptavidin SPA beads prebound with biotinylated-dT12-18, and 1 μCi of [^3H]TTP). Mixtures were incubated at 37°C for ∼3 h and quenched with 100 μl of 0.25 M EDTA per well. Luminescence was detected on a Wallac Trilux programmed for tritium counting with SPA beads in opaque plates. The growth of the reporter-free laboratory M-tropic strains and clinical isolates was monitored by a p24 enzyme-linked immunosorbent assay (ELISA; PerkinElmer Life Sciences, Waltham, MA) performed on culture supernatants. […] A 1:1,000 dilution of cell supernatant in PBS was generally observed to fall in the dynamic range of the endpoint signal.
Maximal percent inhibition values were calculated as MPI = 100 – (mean signals at the 2 highest concentrations of compound/mean signal of 2 no-drug control wells) × 100.

[1] = Human immunodeficiency virus 1, MT2, V370A, 10% FBS
[2] = Human immunodeficiency virus 1, MT2, Wild type, 10% FBS

C=C(C)[C@@H]1CC[C@]2(NCCN3CCS(=O)(=O)CC3)CC[C@]3(C)[C@H](CC[C@@H]4[C@@]5(C)CC=C(C6=CC[C@@](CF)(C(=O)O)CC6)C(C)(C)[C@@H]5CC[C@]43C)[C@@H]12 [GSK’254]
MPI (A366V-containing viruses): −86 to 400%
EC50 (Human immunodeficiency virus 1, MT2, 92BR018-genotyped NLRepRlucP373S virus): 1 nM
EC50 (Human immunodeficiency virus 1, MT2, 93BR008-genotyped NLRepRlucP373S virus): 2 nM
EC50 (Human immunodeficiency virus 1, MT2, R361K/V362I/L363M): 3 nM
EC50 (Human immunodeficiency virus 1, MT2, Table S1, SDM R361K/V362I/L363M): 3 nM
EC50 (Human immunodeficiency virus 1, MT2, Table S1, SDM S368R/V370A): 1 nM
EC50 (Human immunodeficiency virus 1, MT2, Table S1, SDM V362I/V370A): 3 nM
EC50 (Human immunodeficiency virus 1, MT2, Table S1, SDM V370A): 2 nM
EC50 (Human immunodeficiency virus 1, MT2, Table S1, SDM V370A/ΔT371): 3 nM
EC50 (Human immunodeficiency virus 1, MT2, Table S1, SDM ΔV370): 3 nM
EC50 (Human immunodeficiency virus 1, MT2, Table S1, subtype B SDM Wild-type (V, QVT)): 3 nM
EC50 (Human immunodeficiency virus 1, MT2, V362I/V370A): 3 nM
EC50 [1]: 1.5 nM
EC90 [1]: 3 nM
EC50 [2]: 1.4 nM
EC90 [2]: 3.6 nM
EC50 (Human immunodeficiency virus 1, MT2, read-out: EC50 (range), Subtype B gag/pr viruses, n=24): 0.5 to 7 nM
EC50 (Human immunodeficiency virus 1, MT2, read-out: EC50 (range), Subtype C gag/pr viruses, n=11): 1 to 2 nM
EC50 (Human immunodeficiency virus 1, MT2, read-out: EC50 (range), V362I only viruses, n=9): 1 to 7 nM
EC50 (Human immunodeficiency virus 1, MT2, read-out: EC50 (range), Wild-type subtype B, n=5): 0.5 to 2 nM
EC50 (Human immunodeficiency virus 1, MT2, read-out: Mean ± SD EC50, A366V-containing viruses (A366V, V362I/A366V, V362I/A366V/V370M, A366V/V370M)): > 3000 nM
EC50 (Human immunodeficiency virus 1, MT2, read-out: Mean ± SD EC50, SDM A326T/V362I/V370A): 26 ± 70 nM
EC50 (Human immunodeficiency virus 1, MT2, read-out: Mean ± SD EC50, SDM A364V): 274 ± 505 nM
EC50 (Human immunodeficiency virus 1, MT2, read-out: Mean ± SD EC50, SDM R361K/V362I/L363M): 3 ± 1 nM
EC50 (Human immunodeficiency virus 1, MT2, read-out: Mean ± SD EC50, SDM T332S/V362I/prR41G): 7 ± 4 nM
EC50 (Human immunodeficiency virus 1, MT2, read-out: Mean ± SD EC50, SDM V362I/V370A): 3 ± 1 nM
EC50 (Human immunodeficiency virus 1, MT2, read-out: Mean ± SD EC50, SDM V370A): 2 ± 1 nM
EC50 (Human immunodeficiency virus 1, MT2, read-out: Mean ± SD EC50, SDM Wild type): 3 ± 2 nM
EC50 (Human immunodeficiency virus 1, MT2, read-out: Mean ± SD EC50, SDM ΔV370): 3 ± 1 nM
EC50 (Human immunodeficiency virus 1, MT2, read-out: Mean ± SD EC50, Subtype B gag/pr viruses, n=24): 1.9 ± 1.5 nM
EC50 (Human immunodeficiency virus 1, MT2, read-out: Mean ± SD EC50, Subtype C gag/pr viruses, n=11): 1.2 ± 0.4 nM
EC50 (Human immunodeficiency virus 1, MT2, read-out: Mean ± SD EC50, V362I only viruses, n=9): 2.7 ± 2 nM
EC50 (Human immunodeficiency virus 1, MT2, read-out: Mean ± SD EC50, V362I/ΔV370 virus, n=1): 3 nM
EC50 (Human immunodeficiency virus 1, MT2, read-out: Mean ± SD EC50, Wild-type subtype B (V362, Q369, V370, T371), n=5): 1.1 ± 0.5 nM
EC50 (Human immunodeficiency virus 1, MT2, read-out: Median EC50, Subtype B gag/pr viruses, n=24): 1 nM
EC50 (Human immunodeficiency virus 1, MT2, read-out: Median EC50, Subtype C gag/pr viruses, n=11): 1 nM
EC50 (Human immunodeficiency virus 1, MT2, read-out: Median EC50, V362I only viruses, n=9): 2 nM
EC50 (Human immunodeficiency virus 1, MT2, read-out: Median EC50, Wild-type subtype B, n=5): 1 nM
EC90 (Human immunodeficiency virus 1, MT2, read-out: PBA EC90, Table S1, SDM A326T/V362I/V370A): 117 nM
EC90 (Human immunodeficiency virus 1, MT2, read-out: PBA EC90, Table S1, SDM R361K/V362I/L363M): 50 nM
EC90 (Human immunodeficiency virus 1, MT2, read-out: PBA EC90, Table S1, SDM S368R/V370A): 9 nM
EC90 (Human immunodeficiency virus 1, MT2, read-out: PBA EC90, Table S1, SDM T332S/V362I/PrR41G): 77 nM
EC90 (Human immunodeficiency virus 1, MT2, read-out: PBA EC90, Table S1, SDM V362I/V370A): 18 nM
EC90 (Human immunodeficiency virus 1, MT2, read-out: PBA EC90, Table S1, SDM V370A): 21 nM
EC90 (Human immunodeficiency virus 1, MT2, read-out: PBA EC90, Table S1, SDM V370A/ΔT371): 40 nM
EC90 (Human immunodeficiency virus 1, MT2, read-out: PBA EC90, Table S1, SDM ΔV370): 57 nM
EC90 (Human immunodeficiency virus 1, MT2, read-out: PBA EC90, Table S1, subtype B SDM Wild-type (V, QVT)): 24 nM
EC90 (Human immunodeficiency virus 1, MT2, read-out: PBA EC90, subtype B gag/pr 4NRR (Wild-type)): 25 nM
EC90 (Human immunodeficiency virus 1, MT2, read-out: PBA EC90, subtype B gag/pr 28-MDR (Wild-type)): 37 nM
EC90 (Human immunodeficiency virus 1, MT2, read-out: PBA EC90, subtype B gag/pr 92BR014 (V370M)): 11 nM
EC90 (Human immunodeficiency virus 1, MT2, read-out: PBA EC90, subtype B gag/pr 92BR018 (V, QAΔ)): 26 nM
EC90 (Human immunodeficiency virus 1, MT2, read-out: PBA EC90, subtype B gag/pr 92TH014 (V362I)): 12 nM
EC90 (Human immunodeficiency virus 1, MT2, read-out: PBA EC90, subtype B gag/pr 92TH026 (V362I)): 32 nM
EC90 (Human immunodeficiency virus 1, MT2, read-out: PBA EC90, subtype B gag/pr 92US072 (V362I)): 21 nM
EC90 (Human immunodeficiency virus 1, MT2, read-out: PBA EC90, subtype B gag/pr 92US729 (Wild-type)): 13 nM
EC90 (Human immunodeficiency virus 1, MT2, read-out: PBA EC90, subtype B gag/pr 93BR008 (V362I)): 30 nM
EC90 (Human immunodeficiency virus 1, MT2, read-out: PBA EC90, subtype B gag/pr 93BR017 (V, QAΔ)): 20 nM
EC90 (Human immunodeficiency virus 1, MT2, read-out: PBA EC90, subtype B gag/pr 93BR022 (V, QAΔ)): 28 nM
EC90 (Human immunodeficiency virus 1, MT2, read-out: PBA EC90, subtype B gag/pr 93BR024 (V362I)): 180 nM
EC90 (Human immunodeficiency virus 1, MT2, read-out: PBA EC90, subtype B gag/pr 93TH0647 (V362I)): 23 nM
EC90 (Human immunodeficiency virus 1, MT2, read-out: PBA EC90, subtype B gag/pr 93US141 (V362I)): 37 nM
